For one test, the target named is T1, RARβ (Homo sapiens, UniProt P10826).
T1 construct: gal4 (fusion partner); expressed in transfected cells; host or cells: COS-7
T1 sequence (P10826 183-417 limits assumed): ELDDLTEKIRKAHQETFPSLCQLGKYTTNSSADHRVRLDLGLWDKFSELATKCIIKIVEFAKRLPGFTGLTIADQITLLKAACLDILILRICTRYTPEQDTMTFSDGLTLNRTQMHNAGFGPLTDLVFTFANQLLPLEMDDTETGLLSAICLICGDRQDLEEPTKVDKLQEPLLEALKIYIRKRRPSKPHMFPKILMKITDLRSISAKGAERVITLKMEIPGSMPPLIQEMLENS
In words: Transactivation assay for RAR beta (gal4-RAR fusion, luciferase reporter, COS-7 cells). Type of test: cell-based. To be noted: ratio of test compound EC50 to that of atRA; inactive = no agonist action at the highest concentration tested. In outline:
(§1)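 COS-7 cells co-transfected with gal4–RAR ligand-binding-domain fusion and pFR-luc reporter, then treated with compound in phenol-red-free DMEM (1% DMSO) for about one day. Luciferase read after lysis with BrightGlo; EC50 values from replicate experiments given as a ratio of means.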

The target of the next test is T2, RARα (Homo sapiens, UniProt P10276).
T2 construct: gal4 (fusion partner); expressed in transfected cells; host or cells: COS-7
T2 sequence (P10276 183-417 limits assumed): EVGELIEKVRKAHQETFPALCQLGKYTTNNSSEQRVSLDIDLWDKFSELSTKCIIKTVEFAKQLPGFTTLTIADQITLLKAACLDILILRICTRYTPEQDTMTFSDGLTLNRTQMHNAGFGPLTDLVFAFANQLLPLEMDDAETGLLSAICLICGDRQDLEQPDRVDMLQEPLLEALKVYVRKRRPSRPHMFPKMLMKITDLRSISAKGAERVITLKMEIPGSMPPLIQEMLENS
The test is described as follows: Transactivation assay for RAR alpha (gal4-RAR fusion, luciferase reporter, COS-7 cells). Type of test: cell-based. To be noted: for RARα/RARβ ratio (*): fold-selectivity for RARα over RARβ; for RARα activity ratio: ratio of test compound EC50 to that of atRA on the same plate. In outline:
as §1

A further test has as its target T3, RARγ (Homo sapiens, UniProt P13631).
T3 construct: gal4 (fusion partner); expressed in transfected cells; host or cells: COS-7
T3 sequence (P13631 185-419 limits assumed): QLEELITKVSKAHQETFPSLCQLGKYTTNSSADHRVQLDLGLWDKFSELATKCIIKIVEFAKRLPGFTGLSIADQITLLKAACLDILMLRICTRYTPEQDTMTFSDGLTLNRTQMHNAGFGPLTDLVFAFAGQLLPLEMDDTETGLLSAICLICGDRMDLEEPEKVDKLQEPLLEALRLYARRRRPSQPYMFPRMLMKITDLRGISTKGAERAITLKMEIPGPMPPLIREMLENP
In words: Transactivation assay for RAR gamma (gal4-RAR fusion, luciferase reporter, COS-7 cells). Type of test: cell-based. To be noted: ratio of test compound EC50 to that of atRA; inactive = no agonist action at the highest concentration tested. In outline: as §1

Test [1] has as its system amyloid precursor protein (APP). In words: APP expression in cultured cortical neurons. Type of test: cell-based, mouse. Also noted: dose or concentration left out as unconfirmed. To be noted: Agonist; analysed 3 days later (Table 4). On the procedure: (§2) Neuronal cultures were prepared from embryonic E19 mouse embryos. Fetal brain cortices were dissected and freed from meninges. […] Cortical cells (1×10^5) were plated onto poly-L-lysine (10 μg/mL) coated glass coverslips in 24-well tissue culture plates. They were cultured in Neurobasal medium containing B27 supplement, 2 mM glutamine, 20 μg/mL penicillin stepromycin, and 0.25% glucose. They were maintained for 7 days before been treated. For each treatment, 3 coverslips were used and the experiment was repeated 3 times.
(§3) After 3 days of culture, media was removed and Hoechst 33342 (10 μM) and propidium iodide (10 μM) in PBS was added to the wells for 15 minutes. Only neurons positive for Hoechst 33342 but negative for propidium iodide were counted as surviving neurons. […] The antibodies used were α chAT (1:200, Chemicon™), α APP (1:100, Chemicon™) and α ADAM10 (1:200, Chemicon™). Secondary antibody used was anti-rabbit Cy3 or Cy5 conjugated (Jackson™, used at 1:1000). The nuclear marker DAPI (1 μg/mL) was used to stain all cells. […]

In a further test the test system is Aβ42. The test is described as follows: Aβ42 level in cortex of Tg2576 mice after oral agonist (sandwich ELISA). Type of test: in vivo. To be noted: chow with 1 mg/kg agonist for 3 months, six months of age; control = 100. As to the method:
(§4) Twenty seven 3 month old Tg2576 mice (Taconic™) were split into 3 groups of 9. One group was fed normal chow, the other groups were fed with 1 mg/Kg RARα agonist, either AM580 or BMS194753. Animals were analysed at 6 and 9 months of age.
(§5) Animals were perfused with PBS. The brain was dissected and one hemisegment was fixed in 4% PFA overnight, 20% sucrose for 3 days, embedded in OCT compound and stored frozen. The cortex was removed form the other hemisegment and the protein extracted.
(§6) To measure Aβ40 and Aβ42 levels, a sandwich ELISA assay kit (Biosource™) was used according to the manufactures instructions. A 1:5000 of the guanidine-soluble extracts were made with TBS containing 5% BSA and 1×protease inhibitor (Calbiochem™) and centrifuged at 16000×g for 20 minutes at 4° C. Samples were diluted 1:10000 in sample diluent provided by the manufacturer.
(§7) These are Tg2576 mice, which over-express the Swedish mutation of APP. These mice overproduce Aβ40 and Aβ42. Three month old mice were fed for 3 months with normal chow or chow supplemented with 1 mg/kg of agonist. At six months of age, there is a dramatic decrease in both Aβ40 and Aβ42 levels in the mice fed with the RARα agonist, as compared to the normal fed mice.

A further test relates to cortical neurons. In words: Survival of cortical neurons in the presence of 10 μM Aβ42. Type of test: cell-based, mouse. To be noted: for % Surviving Neurons: 10 μM Aβ42, 3 days; for Neuronal survival in the presence of Aβ42 (in words): 10 μM Aβ42, 0.01-1 μM agonist, compared to control cultures treated only with Aβ42. On the procedure:
as §2
After 3 days of culture, media was removed and Hoechst 33342 (10 μM) and propidium iodide (10 μM) in PBS was added to the wells for 15 minutes. Only neurons positive for Hoechst 33342 but negative for propidium iodide were counted as surviving neurons. In addition, cortical cultures were treated with agonist alone (0.1 μM) and assayed for chAT, APP, and ADAM10. The antibodies used were α chAT (1:200, Chemicon™), α APP (1:100, Chemicon™) and α ADAM10 (1:200, Chemicon™). Secondary antibody used was anti-rabbit Cy3 or Cy5 conjugated (Jackson™, used at 1:1000). The nuclear marker DAPI (1 μg/mL) was used to stain all cells.
Cortical cultures were treated after 7 days with 10 μM Aβ42 and supplemented with 0.01-1 μM of agonist. After 3 days, the number of surviving cells was determined. […] As atRA is a weak pan-agonist of all the RARs, it was decided to identify the specific receptor involved in this process using RAR specific agonists.

Test [2] relates to disintegrin-metalloproteinases 10 (ADAM10). The test is described as follows: ADAM10 expression in cultured cortical neurons. Details: dose or concentration left out as unconfirmed. To be noted: Agonist; analysed 3 days later (Table 5, introduced as ADAM10 data). Type of test: cell-based, mouse. As to the method:
as §2, §3

The next test concerns Aβ40. In words: Aβ40 level in cortex of Tg2576 mice after oral agonist (sandwich ELISA). Type of test: in vivo. To be noted: chow with 1 mg/kg agonist for 3 months, six months of age; control = 100. On the procedure: as §4, §5, §6, §7
Test [3] deals with choline acetyltransferase (chAT). In words: chAT expression in cultured cortical neurons. Type of test: cell-based, mouse. Details: dose or concentration left out as unconfirmed. To be noted: Agonist; analysed 3 days later. As to the method: as §2, §3

Turning to `CC(C)Oc1cc(C(=O)Nc2ccc(C(=O)O)cc2)cc(C(F)(F)F)c1OC(C)C` [AAA-120, 4-(3,4-Diisopropoxy-5-(trifluoromethyl)benzamido)benzoic acid], at RARβ, the RARβ activity ratio stood at 142. Also, at RARα, the “RARα/RARβ ratio (*)” value is reported as 157 and the RARα activity ratio is given as 0.89. Also, at RARγ, the RARγ activity ratio came to 2162.
With `CC1(C)CCC(C)(C)c2cc(C(=O)Nc3ccc(C(=O)O)cc3)ccc21` [AM 580], the “Number of APP Neurons” value in test [1] is on record as 11 ± 2; in test [2], 19 ± 3. In addition, the “% of Aβ42” value with Aβ42 turned out to be 8 ± 1%. For the same compound, the “% Surviving Neurons” value amounted to 52 ± 7% in the test on cortical neurons (0.01 μM agonist), 70 ± 6% in the test with cortical neurons (0.1 μM agonist) and 99 ± 9% in the test on cortical neurons (1.0 μM agonist). In addition, the “Neuronal survival in the presence of Aβ42 (in words)” value (“Neuronal survival in the presence” below) with cortical neurons is “notably better”. The “% of Aβ40” value in the test on Aβ40 turned out to be 4 ± 1%.
For the compound `CC1(C)C(=O)C(C)(C)c2cc(C(=O)Nc3ccc(C(=O)O)cc3)ccc21` [BMS 194753], the “Number of chAT Neurons” value in test [3] came to 37 ± 3. The results for the “Number of APP Neurons” value in [1] and in [2] were 10 ± 2 and 20 ± 2, respectively. In the test with Aβ42, the “% of Aβ42” value is given as 7 ± 1%. Further, the results for the “% Surviving Neurons” value in the test with cortical neurons (0.01 μM agonist), with cortical neurons (0.1 μM agonist) and in the test on cortical neurons (1.0 μM agonist) were 57 ± 7%, 69 ± 3% and 88 ± 4%, respectively. Moreover, the “Neuronal survival in the presence” value in the test with cortical neurons is “notably better”. Further, in the test with Aβ40, the “% of Aβ40” value is 3 ± 0.5%.
On to `O=C(O)c1ccc2cc(-c3ccc(O)c(C45CC6CC(CC(C6)C4)C5)c3)ccc2c1` [CD 437], for which the “Number of chAT Neurons” value in test [3] stood at 2 ± 1. Moreover, the “Number of APP Neurons” value in test [1] was determined as 22 ± 3; in [2], 2 ± 0.75. Moreover, the “% Surviving Neurons” value with cortical neurons (0.01 μM agonist) is on record as 53 ± 3%; in the test with cortical neurons (0.1 μM agonist) it was 30 ± 11%; in the test with cortical neurons (1.0 μM agonist), 26 ± 10%. Further, the “Neuronal survival in the presence” value in the test with cortical neurons is recorded as “notably worse”.
On to `COc1ccc(-c2ccc3cc(C(=O)O)ccc3c2)cc1C1(C)CCCCC1` [CD 2019], for which the “Number of chAT Neurons” value in [3] is listed as 8 ± 1. Also, the “Number of APP Neurons” value is listed as 23 ± 2 in [1] and 1 ± 0.5 in [2]. In addition, the entries for the “% Surviving Neurons” value in the test on cortical neurons (0.01 μM agonist), in the test on cortical neurons (0.1 μM agonist) and in the test on cortical neurons (1.0 μM agonist) were 52 ± 3%, 58 ± 5% and 60 ± 5%, respectively. For the same compound, the “Neuronal survival in the presence” value with cortical neurons is “notably worse”.
Turning to `CCOc1ccc(C(=O)Nc2ccc(C(=O)O)cc2)cc1C(F)(F)F` [XXX-01, 4-(4-Ethoxy-3-(trifluoromethyl)benzamido)benzoic acid, reference compound], on RARβ, the RARβ activity ratio was determined as 2570. Moreover, at RARα, the “RARα/RARβ ratio (*)” value is listed as 7.9 and the RARα activity ratio is 327. The RARγ activity ratio result on RARγ is “inactive”.
On the same counts, the results for `O=C(O)c1ccc(NC(=O)c2cc(Cl)cc(Cl)c2)cc1` [XXX-03, 4-(3,5-Dichlorobenzamido)benzoic acid, reference compound] are 642, 7.1, 90 and “inactive”.
Regarding `CC1=C(/C=C/C(C)=C/C=C/C(C)=C/C(=O)O)C(C)(C)CCC1` [atRA, all trans retinoic acid], the “Number of chAT Neurons” value in test [3] is recorded as 16 ± 2. Besides, the RARβ activity ratio on RARβ was found to be 1. The “Number of APP Neurons” value is 15 ± 2 in test [1] and 11 ± 1.5 in [2]. For the same compound, the “RARα/RARβ ratio (*)” value on RARα worked out at 1. Also, the RARα activity ratio on RARα is on record as 1. Moreover, on RARγ, the RARγ activity ratio stood at 1. The “% Surviving Neurons” value in the test on cortical neurons (0.01 μM agonist) stood at 53 ± 4%; in the test with cortical neurons (0.1 μM agonist) it was 69 ± 4%; with cortical neurons (1.0 μM agonist) it was 82 ± 4%. Also, in the test on cortical neurons, the “Neuronal survival in the presence” value is listed as “increase in cell survival with increasing dose”.

For the origin of these results see patent US9447028B2, “Therapeutic aryl-amido-aryl compounds and their use” (King's College London, priority 2009, dated 2016).
